Tests used:
brain mitochondria = experiment: Brain (hypothalamus) mitochondrial morphology, citrate synthase staining; assay type: in vivo, mouse; conditions: single oral dose 120 mg/kg, HFD-fed mice
Method: Preventing mitochondrial fission in the liver improves insulin sensitivity in mice with diet-induced obesity, while blocking fission in anorexigenic hypothalamic POMC neurons reduces food intake by restoring leptin sensitivity (A. Santoro, et al., 2017; and M. Schneeberger, et al., 2013, cited supra). To determine whether sphingolipid-like compound 893 was also effective in the hypothalamus, mitochondrial morphology was assessed in the brains of the same mice evaluated in FIG. 13. Due to the increased time required to remove the organ, brain mitochondria were visualized in fixed tissues by immunofluorescence microscopy rather than by NADH/NADPH autofluorescence. […] Sphingolipid-like compound 893 reversed these HFD-induced changes in mitochondrial morphology in the brains of 3 out of 4 animals examined (FIG. 14). […]
MEFs were washed twice with PBS and fixed with 4% paraformaldehyde for 10 min at RT. […] NADH/NADPH autofluorescence was detected with 740 nm excitation and 450±50 nm detectors using a Mai Tai two-photon laser. Fluorescence microscopy was performed on a Zeiss LSM 780 confocal using a 63× oil objective with a […] numerical aperture (NA) or using a Nikon TE2000-S inverted epifluorescence microscope with a 100× oil objective (1.3 NA) and a Photometrics CoolSNAP ES2 monochrome CCD camera. […]

PIKfyve = PIKfyve (Homo sapiens, UniProt Q9Y2I7); conditions: cited from earlier work
PIKfyve, sequence (Q9Y2I7 whole entry, species assumed): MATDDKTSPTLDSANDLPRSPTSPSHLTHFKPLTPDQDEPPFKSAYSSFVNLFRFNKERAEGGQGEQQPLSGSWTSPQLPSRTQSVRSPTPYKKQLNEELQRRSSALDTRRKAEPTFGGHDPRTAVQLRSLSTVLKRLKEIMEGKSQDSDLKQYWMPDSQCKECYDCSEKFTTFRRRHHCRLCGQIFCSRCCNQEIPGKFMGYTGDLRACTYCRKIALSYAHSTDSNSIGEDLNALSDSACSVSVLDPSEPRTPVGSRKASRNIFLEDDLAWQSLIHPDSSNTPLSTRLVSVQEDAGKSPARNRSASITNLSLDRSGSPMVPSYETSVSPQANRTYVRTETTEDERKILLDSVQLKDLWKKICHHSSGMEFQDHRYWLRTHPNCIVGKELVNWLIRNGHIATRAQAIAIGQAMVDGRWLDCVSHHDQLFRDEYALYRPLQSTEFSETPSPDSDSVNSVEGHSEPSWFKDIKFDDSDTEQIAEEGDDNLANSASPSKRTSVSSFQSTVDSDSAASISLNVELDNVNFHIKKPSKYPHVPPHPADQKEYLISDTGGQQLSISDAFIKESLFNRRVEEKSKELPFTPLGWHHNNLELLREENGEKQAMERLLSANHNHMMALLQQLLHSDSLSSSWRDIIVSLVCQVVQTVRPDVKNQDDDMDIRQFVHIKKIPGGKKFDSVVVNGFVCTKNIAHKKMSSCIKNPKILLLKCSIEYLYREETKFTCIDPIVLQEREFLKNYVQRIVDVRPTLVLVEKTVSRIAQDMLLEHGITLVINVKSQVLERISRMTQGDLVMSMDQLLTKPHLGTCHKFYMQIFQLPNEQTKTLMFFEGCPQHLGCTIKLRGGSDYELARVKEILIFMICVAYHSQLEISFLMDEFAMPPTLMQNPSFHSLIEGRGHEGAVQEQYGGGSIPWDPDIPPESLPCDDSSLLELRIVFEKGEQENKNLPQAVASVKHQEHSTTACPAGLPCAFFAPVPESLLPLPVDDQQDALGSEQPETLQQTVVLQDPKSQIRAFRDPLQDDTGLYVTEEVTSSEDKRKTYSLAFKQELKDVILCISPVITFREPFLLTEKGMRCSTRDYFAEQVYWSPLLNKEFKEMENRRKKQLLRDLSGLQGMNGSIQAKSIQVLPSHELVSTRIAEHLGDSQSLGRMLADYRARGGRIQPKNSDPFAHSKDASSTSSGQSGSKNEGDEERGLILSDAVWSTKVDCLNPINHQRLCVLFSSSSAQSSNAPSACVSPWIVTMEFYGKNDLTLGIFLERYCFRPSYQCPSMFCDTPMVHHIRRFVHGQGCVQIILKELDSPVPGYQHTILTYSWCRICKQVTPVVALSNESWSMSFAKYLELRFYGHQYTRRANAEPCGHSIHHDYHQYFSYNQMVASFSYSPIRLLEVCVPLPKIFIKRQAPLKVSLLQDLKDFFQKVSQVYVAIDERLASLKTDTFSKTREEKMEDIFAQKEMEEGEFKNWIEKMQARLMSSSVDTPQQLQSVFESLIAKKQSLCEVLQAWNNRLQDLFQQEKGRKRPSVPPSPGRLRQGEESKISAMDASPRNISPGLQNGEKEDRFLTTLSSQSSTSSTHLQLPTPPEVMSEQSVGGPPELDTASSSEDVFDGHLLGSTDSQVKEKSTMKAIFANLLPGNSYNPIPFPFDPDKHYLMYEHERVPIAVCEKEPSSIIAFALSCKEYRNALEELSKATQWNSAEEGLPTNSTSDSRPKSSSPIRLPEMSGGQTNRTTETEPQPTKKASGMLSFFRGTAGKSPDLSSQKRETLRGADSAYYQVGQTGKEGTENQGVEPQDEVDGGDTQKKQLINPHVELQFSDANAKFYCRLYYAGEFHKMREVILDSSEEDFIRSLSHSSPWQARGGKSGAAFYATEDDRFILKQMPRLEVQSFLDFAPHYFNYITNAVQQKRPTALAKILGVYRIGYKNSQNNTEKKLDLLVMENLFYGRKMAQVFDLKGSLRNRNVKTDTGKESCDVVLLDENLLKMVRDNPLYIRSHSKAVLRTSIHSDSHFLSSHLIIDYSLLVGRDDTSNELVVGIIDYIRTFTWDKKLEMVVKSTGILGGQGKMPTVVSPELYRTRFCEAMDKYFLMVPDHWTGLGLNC

CCCCCCCCc1ccc([C@H]2CCN[C@@H]2CO)cc1.Cl [compound 893]
Animals with reversal of HFD-induced changes in brain mitochondrial morphology (brain mitochondria): 3 out of 4 | Effect on PIKfyve (PIKfyve): inactivates

Source: patent US20220409617A1, “Drug Formulations and Methods of Treatment for Metabolic Disorders” (The Regents of the University of California, priority 2019, published 2022)
